System: bone cells (line UMR 106 or G 292)
Assay: fixation of calcium in the extra cellular matrix of cultured bone cells (atomic spectrophotometry)
Assay type: cell-based
Conditions: for amount of fixed calcium in the extra cellular matrix of the osteoblasts: cells treated with 10 µg of calcium inhibitor, same conditions
Description: In the same conditions the cells are treated with 10 µg Verapamil or any other inhibitor of the calcium such as Cinchonine or Diltiazem.

Compound | fixed calcium (10 ng of Maltadiolone, in comparison with the untreated control cells, line UMR 106 or G 292) | fixative activity on the calcium (cells treated with both 1 μg IL-1 and 10 μg Maltadiolone) | concentration from which recovery of the fixation of calcium on the extra cellular matrix may be detected (same conditions as previously (IL-1 treated cells)) | amount of fixed calcium in the extra cellular matrix of the osteoblasts
2-oxo 3-hydroxy 25-ethylidene A-nor cholest-3-ene [Maltadiolone] | increase in the fixed calcium | restore a fixative activity on the calcium, equivalent to that of cells untreated with a calcium inhibitor | ≥ 10 ng/mL | 
COc1ccc(CCN(C)CCCC(C#N)(c2ccc(OC)c(OC)c2)C(C)C)cc1OC (stereo not drawn) [Verapamil] |  |  |  | equivalent to that of the cells treated with interleukin
COc1ccc([C@@H]2Sc3ccccc3N(CCN(C)C)C(=O)[C@@H]2OC(C)=O)cc1 [Diltiazem] |  |  |  | equivalent to that of the cells treated with interleukin
C=C[C@H]1C[N@@]2CC[C@H]1C[C@@H]2[C@@H](O)c1ccnc2ccccc12 [Cinchonine] |  |  |  | equivalent to that of the cells treated with interleukin

From US7186756B2, “Steroid derivatives and use thereof as medicaments” (Inovat, priority 2003, dated 2007)
